Assay results: US10100076B2, “Modified nucleosides for the treatment of viral infections and abnormal cellular proliferation” (priority 2000, dated 2018)
Read-outs that look alike come from different tables or passages of the source.

How the values were obtained:
Vero cells = assay: cells; format: cell-based; conditions: for % inhibition at 100 μM, Vero Cells: three day incubation, MTT
Procedure: (§1) The cytotoxicity testing as performed herein is a standard technique. Briefly, cells are seeded in 96-well plates at various concentrations (dependent on cell type, duration of assay), typically at 5×10^3 cells per well, in the presence of increasing concentrations of the test compound (0, 1, 3, 10, 33, and 100 μM). After three (Vero cells), or four (CEM cells), or five (PBM cells) day-incubation, cell viability and mitochondrial activity are measured by adding the MTT-dye (Promega), followed by a 8 hours incubation. Afterwards the plates containing the dye are fixed by adding a stop-solution followed by another eight hour incubation. Finally, absorbance is read at 570 nm. Such methodologies are well described and available from the manufacturer (Promega).

PBM cells = assay: cells; format: cell-based, human; conditions: for % inhibition at 100 μM, PBM cells: five day incubation, MTT
Procedure: as §1

CEM cells = assay: cells; format: cell-based, human; conditions: for % inhibition at 100 μM, CEM Cells: four day incubation, MTT
Procedure: as §1

[1] = test system: human malignant T and B cells and various tumor cell lines; assay: Toxicity profile against human malignant T and B cells and various tumor cell lines (MTT, IC50); format: cell-based; conditions: MTT assay, 3-5 days, read-out: Toxicity IC50
Procedure: as §1, with “Cytotoxicity” for “The cytotoxicity”, “here are” for “herein is a”, “techniques.” for “technique.”, “Depending on the cell-type incubation with test compound can vary in time, but is usually within the range of 3 to 5 days. Cell” for “After three (Vero cells), or four (CEM cells), or five (PBM cells) day-incubation, cell”, “eight” for “a 8”, “hours of” for “hours”
In order to explore the complete potential of this compound, a set of human malignant T and B cells and various tumor cell lines were incubated with […] at varying concentrations, and after the absorbance was read, an IC50 value was calculated. As a control, Ara-C, 5FU, and cyclo-heximide was taken alongside (Table 26).

[2] = test system: rRNA (host RNA polymerase I product); assay: rRNA ΔCt in Huh7 replicon cells (effect on host RNA polymerases); conditions: Table 24, average of n
Description: In a typical setting, a compound might reduce both the host RNA polymerase activity and the replicon-encoded polymerase activity. Therefore, quantification of rRNA (or any other host RNA polymerase I product) or beta-actin mRNA (or any other host RNA polymerase II) and comparison with RNA levels of the no-drug control is a relative measurement of the effect of the test compound on host RNA polymerases.
With the availability of both the HCV ΔCt data and the rRNA ΔCt, a specificity parameter can be introduced. This parameter is obtained by subtracting both ΔCt values from each other.

HCV replicon = HCV replicon system in Huh7 cells, replicon RNA by Q-RT-PCR (HCV ΔCt, ΔΔCt); format: cell-based, hepatitis C virus; conditions: for Ave. ΔΔCt: HCV RNA ΔCt minus rRNA ΔCt; for Ave. HCV RNA ΔCt: HCV replicon in Huh7 cells; for average ΔΔCt: HCV RNA ΔCt minus rDNA ΔCt
rDNA (host DNA) = assay: rDNA ΔCt in Huh7 replicon cells (effect on cellular DNA polymerases); conditions: Table 25, average of N
Description: In another typical setting, a compound might reduce the host RNA polymerase activity, but not the host DNA polymerase activity. Therefore, quantification of rDNA or beta-actin DNA (or any other host DNA fragment) and comparison with DNA levels of the no-drug control is a relative measurement of the inhibitory effect of the test compound on cellular DNA polymerases.
With the availability of both the HCV ΔCt data and the rDNA ΔCt, a specificity parameter can be introduced. This parameter is obtained by subtracting both ΔCt values from each other.

[3] = Vero (African green monkey kidney cell line), MTT assay, incubation 3-5 days, read-out: Toxicity IC50
[4] = PBM (human peripheral blood mononuclear cells), MTT assay, incubation 3-5 days, read-out: Toxicity IC50
[5] = CEM (human T-cell lymphoma cell line), MTT assay, incubation 3-5 days, read-out: Toxicity IC50

SMILES | IC50 (Vero cells) | % inhibition at 100 μM, Vero Cells (Vero cells) | IC50 (PBM cells) | % inhibition at 100 μM, PBM cells (PBM cells) | IC50 (CEM cells) | % inhibition at 100 μM, CEM Cells (CEM cells) | Ave. rRNA ΔCt [2] | Ave. ΔΔCt (HCV replicon; Table 24) | Ave. HCV RNA ΔCt (HCV replicon; Table 24, average of n) | average ΔΔCt (HCV replicon; Table 25) | Ave. HCV RNA ΔCt (HCV replicon; Table 25, average of N) | Ave. rDNA ΔCt (rDNA (host DNA)) | further results
O=c1[nH]cc(F)c(=O)[nH]1 [5FU] |  |  |  |  |  |  |  |  |  |  |  |  | IC50 (Vero cells; [3]): 65 µM; IC50 (PBM cells; [4]): 13.7 µM; IC50 (CEM cells; [5]): 90.5 µM; IC50 ([1]; BL41 (human B-cell lymphoma cell line)): 24.1 µM; IC50 ([1]; H9 (human T-cell lymphoblast cell line)): 14.2 µM; IC50 ([1]; HEPG2 (human liver carcinoma cell line)): 40.6 µM; IC50 ([1]; JY (human B-cell lymphoma cell line, EBV transformed)): 7.5 µM; IC50 ([1]; LNCaP (human prostate adenocarcinoma cell line)): 22.1 µM; IC50 ([1]; MCF-7 (human breast carcinoma cell line)): 43.7 µM; IC50 ([1]; SK-MEL-28 (human melanoma cell line)): 11.2 µM; IC50 ([1]; SK-MES-1 (human lung squamous carcinoma cell line)): 13.1 µM; IC50 ([1]; SupT1 (human T-cell lymphoblast cell line)): 53.6 µM
Nc1ccn([C@@H]2O[C@H](CO)[C@@H](O)[C@@H]2O)c(=O)n1 [Ara-C, reference compound] |  |  |  |  |  |  |  |  |  |  |  |  | IC50 (Vero cells; [3]): 0.8 µM; IC50 (PBM cells; [4]): 7 µM; IC50 (CEM cells; [5]): 0.6 µM; IC50 ([1]; SUDHL-1 (human anaplastic large T-cell lymphoma cell line)): 3.7 µM
O=c1[nH]c(=O)n([C@@H]2C[C@H](CO)[C@@H](O)[C@H]2O)cc1F [β-D-GF] | > 100 µM | 4.3% | > 100 µM | −46.2% | > 100 µM | 11.2% |  |  |  |  |  |  | 
Nc1nc(Cl)c2ncn([C@H]3CS[C@@H](CO)O3)c2n1 [β-D-KB] |  |  |  |  |  |  | 2.52 | 1.10 | 3.61 | 3.81 | 3.81 | 0.00 | 
O=c1nc2n(cc1F)[C@@H]1O[C@H](CO2)[C@@H](O)[C@H]1O [β-D-LA] |  |  |  |  |  |  | 4.10 | 0.89 | 3.85 | 1.98 | 3.54 | 1.56 | 
CC(=O)O[C@H]1[C@@H]2Oc3nc(=N)ccn3[C@@H]2O[C@@H]1CO [β-D-MD] |  |  |  |  |  |  | 1.95 | 1.62 | 3.57 | 1.46 | 3.50 | 1.58 | 
N=c1ccn2c(n1)O[C@H]1[C@H](O)[C@@H](CO)O[C@H]12 [β-D-ME] |  |  |  |  |  |  | 1.25 | 1.64 | 2.89 | 1.36 | 2.89 | 1.53 | 
N=c1nc2n(cc1F)[C@@H]1O[C@H](CO)[C@@H](O)[C@@H]1O2 [β-D-MF] |  |  |  |  |  |  | 2.69 | 1.10 | 3.79 | 1.65 | 3.79 | 2.17 | 
Nc1nc(SSc2nc(N)nc3c2ncn3[C@@H]2O[C@H](CO)[C@@H](O)[C@H]2O)c2ncn([C@@H]3O[C@H](CO)[C@@H](O)[C@H]3O)c2n1 [β-D-QA] |  |  |  |  |  |  | 3.81 | −0.89 | 2.91 | 2.55 | 4.85 | 2.30 | 
Nc1nc(=O)c([C@@H]2O[C@H](CO)[C@@H](O)[C@H]2O)c[nH]1 [β-D-RB] |  |  |  |  |  |  | 3.18 | 1.12 | 4.30 | 2.74 | 4.00 | 1.27 | 
N=c1nc2c(c[nH]1)[C@@H]1O[C@H](CO)[C@@H](O)[C@@H]1O2 [β-D-TA] |  |  |  |  |  |  | 3.31 | 0.69 | 4.00 | 0.93 | 4.00 | 3.07 | 
Nc1ncnc2c([C@@H]3O[C@H](CO)[C@@H](O)[C@H]3O)cnn12 [β-D-UA] |  |  |  |  |  |  | 1.61 | 1.3 | 2.91 | 2.41 | 2.91 | 0.50 | 
Nc1nc(F)nc2c1ncn2[C@@H]1C=C[C@H](CO)O1 [β-L-FC] |  |  |  |  |  |  | 5.13 | 0.42 | 5.55 | 3.41 | 4.41 | 1.00 | 
Nc1nc(=O)n([C@H]2C[C@@H](CO)[C@H](O)[C@@H]2O)cc1F [β-L-GA] | > 100 µM | 27.9% | > 100 µM | −113.2% | > 100 µM | 1.1% |  |  |  |  |  |  | 
O=c1ccn([C@@H]2CC[C@H](CO)C2)c(=O)[nH]1 [β-L-GC] | > 100 µM | −13.4% | > 100 µM | −53.2% | > 100 µM | −1.2% |  |  |  |  |  |  | 
Nc1ccn([C@H]2C[C@@H](CO)[C@H](O)[C@@H]2O)c(=O)n1 [β-L-GD] | > 100 µM | 0.8% | > 100 µM | −12.9% | > 100 µM | −79.7% |  |  |  |  |  |  | 
Nc1ccn(C2CCC(CO)C2)c(=O)n1 [β-L-GE] | > 100 µM | 10.6% | > 100 µM | −59.7% | > 100 µM | 0.0% |  |  |  |  |  |  | 
O=c1[nH]c(=O)n([C@H]2C[C@@H](CO)[C@H](O)[C@@H]2O)cc1F [β-L-GF] | > 100 µM | 33.8% | > 100 µM | −70.4% | > 100 µM | 35.1% |  |  |  |  |  |  | 
Nc1nc(=O)n([C@@H]2CC[C@H](CO)C2)cc1I [β-L-GG] | > 100 µM | 33.6% | > 100 µM | −34.6% | > 100 µM | 17.3% |  |  |  |  |  |  | 
Nc1nc(=O)n([C@H]2C[C@@H](CO)[C@H](O)[C@@H]2O)cc1I [β-L-GH] | > 100 µM | 27.0% | > 100 µM | −52.1% | > 100 µM | 19.7% |  |  |  |  |  |  | 
Nc1nc(=O)n([C@H]2C[C@@H](CO)[C@H](O)[C@@H]2O)cc1Cl [β-L-GI] | > 100 µM | 31.9% | > 100 µM | −47.8% | > 100 µM | 18.0% |  |  |  |  |  |  | 
Nc1nc(=O)n(C2CSC(CO)O2)cc1F [β-L-JB] |  |  |  |  |  |  | 4.55 | −0.90 | 3.65 | 2.45 | 3.65 | 1.20 | 
OC[C@@H]1O[C@H](n2cnc3c(Cl)ncnc32)CS1 [β-L-KA] |  |  |  |  |  |  | 4.84 | −0.74 | 4.10 | 3.69 | 4.10 | 0.42 | 
Nc1nc(F)nc2c1ncn2[C@@H]1CS[C@H](CO)O1 [β-L-KC] |  |  |  |  |  |  | 1.35 | −0.16 | 1.19 | 3.54 | 2.73 | −0.81 | 
